According to US20240360179A1, “STAPLED PEPTIDES AND METHODS THEREOF” (FOG PHARMACEUTICALS, INC., priority 2021, published 2024):
pIC50: −log10 of the molar value.

Assays:
[1] = test system: Wnt/beta-catenin pathway in COLO320DM tumors; experiment: Tumor RNA-sequencing and GSEA in COLO320DM tumors; type: in vivo, mice; conditions: 48-hr post-dose, i.p. 30 mg/kg
From the text: It is noted that both negatively and positively enriched gene sets were observed. Among other things, the present disclosure provides technologies for assessing efficacy of a method, e.g., a treatment, comprising assessing expression of one or more negatively and/or positively enriched genes. In some embodiments, if expression profiles of one or more genes are negatively and/or positively enriched as identified herein, a method may be considered to have efficacy, and/or administration (e.g., of provided technologies such as stapled peptides, compositions, etc.) to a subject can continue. […]
RNAseq Data Analysis. In some embodiments, sequence reads were trimmed to remove possible adapter sequences and nucleotides with poor quality using Trimmomatic v.0.39. The trimmed reads were mapped to the Homo sapiens GRCh38 reference genome available on ENSEMBL using the STAR aligner v.2.7.7a. For grafted tumor samples, host reads were removed with XenofilteR. Unique gene hit counts were calculated by using featureCounts from the R Subread package v.2.4.2. Read filtering, normalization, and differentially expression analysis was performed with the edgeR package v.4.0.2 in R. Genes with an adjusted p-value <0.01 and absolute log 2 fold change >1 were called as differentially expressed genes for each comparison. […]
RNAseq Preparation. […] On average over 60 million 2×150 base pair reads were produced per sample. […]

[2] = Mouse plasma pharmacokinetics (IV, IP); type: in vivo; conditions: single intraperitoneal (IP) dose at 100 mg/kg
Experimental: Concentrations of agents in biological samples were measured by LC-MS/MS (Triple Quad 6500+). […] 8 uL of plasma or tissue lysate was used for LC method with mobile phase A (1% formic acid (FA, LS118-4, Fisher Scientific) in H2O) and mobile phase B (0.1% FA in ACN), 0.6 ml/min flow rate in Waters ACQUITY UPLC BEH C18 2.1*50 mm, 1.7 μm column. […] MS was conducted by electrospray ionization and multi reaction monitor scans. PK parameters such as plasma maximum concentration (Cmax), and AUC were analyzed by noncompartmental model 200 of Phoenix WinNonlin 8.3, using the linear/log trapezoidal method.
In some embodiments, concentrations of compounds, e.g., stapled peptides, in biological samples were measured by LC-MS/MS (Triple Quad 6500+). […] 8 uL of plasma or tissue lysate was used for LC method with mobile phase A (1% formic acid (FA, LS118-4, Fisher Scientific) in H2O) mobile phase B (0.1% FA in ACN), 0.6 ml/min flowrate in Waters ACQUITY UPLC BEH C18 2.1*50 mm, 1.7 um column. […] In some embodiments, MS was conducted by electrospray ionization and multi reaction monitor scans. In some embodiments, PK parameters such as plasma maximum concentration (Cmax), and AUC were analyzed by noncompartmental model 200 of Phoenix WinNonlin 8.3, using the linear/log trapezoidal method.

[3] = target: T1, beta-catenin/TCF4 interaction (Homo sapiens, UniProt P35222); type: cell-based; conditions: read-out: NanoBRET IC50
T1 construct: host or cells: HEK293
T1 sequence (P35222 1-781): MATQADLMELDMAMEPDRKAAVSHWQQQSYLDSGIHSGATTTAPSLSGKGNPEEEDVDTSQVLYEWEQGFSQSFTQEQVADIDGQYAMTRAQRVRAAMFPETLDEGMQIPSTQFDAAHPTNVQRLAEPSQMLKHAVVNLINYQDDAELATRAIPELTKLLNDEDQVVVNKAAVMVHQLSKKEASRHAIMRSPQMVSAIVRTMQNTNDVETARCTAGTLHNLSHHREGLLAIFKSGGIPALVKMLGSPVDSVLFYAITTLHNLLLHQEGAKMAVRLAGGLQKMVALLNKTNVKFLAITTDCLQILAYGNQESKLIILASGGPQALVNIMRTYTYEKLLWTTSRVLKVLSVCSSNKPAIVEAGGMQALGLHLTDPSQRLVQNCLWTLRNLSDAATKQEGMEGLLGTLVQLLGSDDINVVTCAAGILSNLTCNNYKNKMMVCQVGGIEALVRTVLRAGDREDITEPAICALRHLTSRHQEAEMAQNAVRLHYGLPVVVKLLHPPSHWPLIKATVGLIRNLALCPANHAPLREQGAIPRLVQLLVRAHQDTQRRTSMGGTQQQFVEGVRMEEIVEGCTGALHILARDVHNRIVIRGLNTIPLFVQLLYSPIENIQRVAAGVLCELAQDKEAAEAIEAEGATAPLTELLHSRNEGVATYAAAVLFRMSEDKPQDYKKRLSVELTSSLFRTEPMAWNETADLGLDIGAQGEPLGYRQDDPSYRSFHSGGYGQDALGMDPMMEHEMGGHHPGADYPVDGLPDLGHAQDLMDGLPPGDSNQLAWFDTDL

Ac-PL3-Glu-Npg-B5-Glu-3COOHF-Aib-Ala-Phe-Lys*3-PyrS2-3Thi-BztA-GlnR*3-Ala-NH2 [I-470]
concentration in tumors [1]: 5181 ng/gram
plasma AUC [2]: comparable
pIC50 [3]: < 4.70
